Test system: relapse-remitting EAE model induced with PLP139-151 peptide in SJL mice
Assay: SJL EAE model, therapeutic treatment (Example 3), clinical results
Assay type: in vivo
Conditions: for MMS ± SD: Day 0-42; for MMS ± SD / Incidence of relapse (%) / MMS of relapse period ± SD (Days 18-42) / End % body weight ± SD / End score ± SD: PO QD day ~11 - day 42; for MMS until Day 17 ± SD: acute phase, PO QD from day ~11; for End % body weight ± SD / End score ± SD: end of study
Procedure: The SJL EAE model is a Th17/Th1-mediated mouse model of relapsing-remitting neuroinflammatory disease that is induced via immunization with proteolipid protein (PLP), a major protein constituent of CNS myelin. Disease pathology is due to infiltration of immune cells in the CNS leading to decreased motor function and paralysis. Briefly, in this model mice are injected subcutaneously with an emulsion of PLP-peptide plus CFA and intraperitoneally with pertussis toxin on day 0. Acute neuroinflammatory disease develops between day 10 to day 16, and the relapsing-remitting disease phase occurs from day 20 to day 45. Mice are dosed daily from the day of sensitization through the end of the study by oral gavage. In a therapeutic model, dosing of the mice begins on the second day of disease (~ Day 11 after disease induction). Mice are scored daily for a decrease in motor function and complete paralysis in the tail and limbs. Histopathology is carried out to score the frequency of inflammatory infiltrates and demyelination in the spinal cord.
The model details and read-outs, and methods are described below. Treatment began two days after disease onset, around day ~11 (mice were enrolled on the second day of disease for each mouse).
Experimental Autoimmune Encephalomyelitis. Female SJL mice (8-10 weeks old) were subcutaneously injected at four sites with myelin proteolipid protein (PLP) 139-151 in CFA emulsion (0.05 mL/injection site; ~0.5 mg PLP PLP139-151/mL; Hooke Laboratories; EK-2120). Following immunization, EAE induction was completed by intraperitoneal injections of pertussis toxin (6 µg/mL; 0.1 mL/mouse) within 2 hours of immunization. Mice were randomized into groups and monitored for EAE clinical score over the course of 42 days. Disease progression was scored blinded of treatment or prior measurements. Disease severity was scored using standard EAE criteria: 0 (normal); 1 (loss of tail tone); 2 (hind limb weakness); 3 (hind limb paralysis); 4 (hind limb paralysis and forelimb paralysis or weakness); 5 (morbidity/death). Mice were observed daily for clinical symptoms.
• Vehicle (anaerobic sucrose buffer) PO QD day ~11 - day 42 • G.I. Strain A 10 mg/dose PO QD day ~11 - day 42 • Fingolimod, 1 mg/kg PO QD day ~11 - day 42 • Fingolimod, 0.1 mg/kg PO QD day ~11 - day 42
G.I. Strain A was prepared as a lyophilized powder and was gamma irradiated prior to use.

[1] = Strain A 10 mg/dose, Fingolimod 1 mg/kg

## CCCCCCCCc1ccc(CCC(N)(CO)CO)cc1 [Fingolimod]
Fingolimod 0.1 mg/kg
  MMS ± SD: 3.20±0.70
  Incidence of relapse (%): 28.6%
  MMS of relapse period ± SD (Days 18-42): 1.77±1.53
  MMS until Day 17 ± SD: 3.13 ± 0.69
  End % body weight ± SD: 95.2±11.1%
  End score ± SD: 0.97±1.45
[1]
  MMS ± SD: 3.13±0.52
  Incidence of relapse (%): 0%
  MMS of relapse period ± SD (Days 18-42): 0.83±0.67
  MMS until Day 17 ± SD: 3.13±0.52
  End % body weight ± SD: 101.8±12.0%
  End score ± SD: 0.10±0.21
